Consider 15 compounds from ChEMBL document CHEMBL1201862, “PubChem BioAssay data set” (2004).

Activity calls are given as the source filed them.

Experiment [1] deals with T1, Caspase-6 (Homo sapiens, UniProt P55212).
T1 sequence (P55212 whole entry): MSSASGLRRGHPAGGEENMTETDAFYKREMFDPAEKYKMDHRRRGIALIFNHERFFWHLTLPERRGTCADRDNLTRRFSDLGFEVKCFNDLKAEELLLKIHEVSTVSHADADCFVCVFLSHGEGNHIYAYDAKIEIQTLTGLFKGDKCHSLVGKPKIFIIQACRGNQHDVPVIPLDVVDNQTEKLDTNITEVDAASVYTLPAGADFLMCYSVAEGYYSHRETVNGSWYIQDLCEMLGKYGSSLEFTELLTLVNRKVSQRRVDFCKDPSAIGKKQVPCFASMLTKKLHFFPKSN
Nature of the experiment: human caspase-6 inhibitors, dose response, biochemical, VEID-R110 fluorescence, cherry-pick (AID 720632).

Experiment [2] deals with Large T antigen (Simian virus 40, UniProt P03070). In kind it is functional, Betapolyomavirus macacae.
Experiment [3] addresses T2, Streptokinase A (Streptococcus pyogenes serotype M1, UniProt P10520).
T2 sequence (P10520 whole entry): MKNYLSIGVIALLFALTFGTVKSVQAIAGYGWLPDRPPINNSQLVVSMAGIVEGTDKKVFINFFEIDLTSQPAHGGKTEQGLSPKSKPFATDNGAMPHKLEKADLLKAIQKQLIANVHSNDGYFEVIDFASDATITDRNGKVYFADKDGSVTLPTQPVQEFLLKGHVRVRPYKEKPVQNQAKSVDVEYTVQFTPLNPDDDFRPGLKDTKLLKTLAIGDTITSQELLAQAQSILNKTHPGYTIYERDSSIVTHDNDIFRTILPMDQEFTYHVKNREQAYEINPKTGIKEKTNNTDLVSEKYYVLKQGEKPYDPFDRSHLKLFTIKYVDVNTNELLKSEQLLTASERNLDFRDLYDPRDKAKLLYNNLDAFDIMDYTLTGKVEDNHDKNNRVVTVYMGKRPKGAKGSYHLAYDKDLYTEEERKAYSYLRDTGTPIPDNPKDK
Nature of the experiment: S. pyogenes streptokinase expression inhibitors, potency, dose response, plasminogen activation absorbance, OD405 (AID 1914).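 Also: secreted streptokinase activity via plasminogen activation per viability signal from cell pellet.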 In kind it is functional, Streptococcus pyogenes M1 GAS.

Experiment [4] has as its target Heat shock protein HSP 90-alpha (Homo sapiens, UniProt P07900). In kind it is functional, organism-based.
Experiment [5] has as its target T3, Carboxy-terminal domain RNA polymerase II polypeptide A small phosphatase 1 (Homo sapiens, UniProt Q9GZU7).
T3 sequence (Q9GZU7 whole entry): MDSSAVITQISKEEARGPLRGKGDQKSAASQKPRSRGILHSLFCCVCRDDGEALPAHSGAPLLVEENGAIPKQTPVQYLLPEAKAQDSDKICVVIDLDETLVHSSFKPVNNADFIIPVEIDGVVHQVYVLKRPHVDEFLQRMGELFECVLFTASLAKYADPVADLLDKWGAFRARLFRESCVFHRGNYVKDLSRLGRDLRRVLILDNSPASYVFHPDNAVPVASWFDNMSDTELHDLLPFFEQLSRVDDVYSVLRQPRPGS
Nature of the experiment: inhibitors of CTDSP1, concentration-response testing, biochemical assay, absorbance-based, actives from ultra-high-throughput screening (AID 540297). In kind it is functional.

Experiment [6] concerns the target T4, Rac GTPase-activating protein 1 (Homo sapiens, UniProt Q9H0H5).
T4 sequence (Q9H0H5 whole entry): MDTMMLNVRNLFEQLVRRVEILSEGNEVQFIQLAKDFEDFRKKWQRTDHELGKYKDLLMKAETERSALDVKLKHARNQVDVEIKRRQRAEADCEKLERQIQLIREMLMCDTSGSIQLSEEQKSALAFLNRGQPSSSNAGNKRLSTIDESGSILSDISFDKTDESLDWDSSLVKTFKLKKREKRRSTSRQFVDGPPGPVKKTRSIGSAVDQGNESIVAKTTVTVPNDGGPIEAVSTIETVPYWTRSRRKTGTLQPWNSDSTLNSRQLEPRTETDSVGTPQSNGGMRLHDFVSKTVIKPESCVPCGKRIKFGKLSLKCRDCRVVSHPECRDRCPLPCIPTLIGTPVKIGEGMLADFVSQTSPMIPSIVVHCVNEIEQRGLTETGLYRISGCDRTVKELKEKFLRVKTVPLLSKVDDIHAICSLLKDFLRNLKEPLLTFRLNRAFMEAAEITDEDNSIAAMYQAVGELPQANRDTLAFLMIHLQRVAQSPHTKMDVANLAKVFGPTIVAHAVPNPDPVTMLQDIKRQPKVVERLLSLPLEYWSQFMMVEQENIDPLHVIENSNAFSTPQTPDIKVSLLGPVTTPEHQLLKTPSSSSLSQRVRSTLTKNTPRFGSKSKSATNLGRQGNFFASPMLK
Nature of the experiment: MgcRacGAP GTPase-activating activity inhibitors, confirmation, biochemical, ADP Hunter fluorescence, primary and confirmatory (AID 624330). In kind it is functional.

Experiment [7] is described as follows: Luminescence Cell-Based Dose Confirmation HTS to Identify Inhibitors of Platelet Dense Granule Release. [Related pubchem assays: 1663 (Primary HTS), 1678 (Summary of Project)]. In kind it is functional.
In experiment [8] the target is Luciferin 4-monooxygenase (Photinus pyralis, UniProt P08659). Nature of the experiment: firefly luciferase enzyme inhibitors, dose response, biochemical, luminescence (AID 1891).
Experiment [9] is described as follows: Shn3 3'UTR reporter inhibitors, dose response, cell-based, Clone20 osteoblasts, firefly luciferase, cherry-picked (AID 624132).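 Also: firefly luciferase luminescence from reporter carrying the Shn3 3'UTR in osteoblasts.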 In kind it is functional.
A short description of experiment [10]: HepG2 cell cytotoxicity, dose response, cytotoxicity control for Shn3 inhibitor project, CellTiter-Glo, cherry-picked (AID 624134). Type of experiment: functional, cell-based. On the technique in general: Cellular ATP, detected with luciferase, serves as a proxy for viable cell number.
Experiment [11] is described as follows: Luminescence Cell-Based Dose Retest to Confirm Inhibitors of Cancer Stem Cells. [Related pubchem assays (depositor defined):AID2717, AID2721]. Type of experiment: functional. Conditions: Homo sapiens.
Experiment [12] can be described thus: control 3'UTR Renilla luciferase suppression, dose response, counter-screen for Shn3 inhibitor project, cell-based, Clone20-Shn3RL, cherry-picked (AID 624133). Type of experiment: functional. On the technique in general: Counterscreens check selectivity or assay interference.
Experiment [13] in a line: HEp-2 cell cytotoxicity, dose response, cytotoxicity control for RSV inhibitor project, HTS (AID 2410). In kind it is functional. The note with it: human respiratory syncytial virus.
Experiment [14] is described as follows: cytotoxicity in HEK-293T cells, dose response, cytotoxicity control for BCR NF-kB inhibitor project, luminescence, B-cell screen hits (AID 489021).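 Also: HEK-293T cells carrying an NF-kB luciferase reporter; cells exposed to compound for about 14 hours before viability readout.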 Type of experiment: functional, cell-based.
Experiment [15] concerns BJ. Nature of the experiment: cytotoxicity toward BJ-TERT fibroblasts, dose response, cell-based, RAS-independent, luminescence (AID 1933). The note with it: Homo sapiens. Type of experiment: functional.
The subject of experiment [16] is BJ. Nature of the experiment: cytotoxicity toward BJ-TERT-LT-ST fibroblasts, dose response, cell-based, RAS-independent, luminescence (AID 1935).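 Also: BJ fibroblasts immortalized with TERT plus LT and ST oncogenes.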 In kind it is functional. The note with it: Homo sapiens.
In experiment [17] the test system is BJ. Nature of the experiment: cells. In kind it is functional, cell-based. Conditions: Homo sapiens.
Experiment [18] in a line: cytotoxicity toward DRD oncogenic fibroblasts, dose response, cell-based, non-viral oncogenic, luminescence (AID 1934). Type of experiment: functional. Conditions: Homo sapiens.
Experiment [19] has as its target T5, Short transient receptor potential channel 4 (Mus musculus, UniProt Q9QUQ5).
T5 sequence (Q9QUQ5 whole entry): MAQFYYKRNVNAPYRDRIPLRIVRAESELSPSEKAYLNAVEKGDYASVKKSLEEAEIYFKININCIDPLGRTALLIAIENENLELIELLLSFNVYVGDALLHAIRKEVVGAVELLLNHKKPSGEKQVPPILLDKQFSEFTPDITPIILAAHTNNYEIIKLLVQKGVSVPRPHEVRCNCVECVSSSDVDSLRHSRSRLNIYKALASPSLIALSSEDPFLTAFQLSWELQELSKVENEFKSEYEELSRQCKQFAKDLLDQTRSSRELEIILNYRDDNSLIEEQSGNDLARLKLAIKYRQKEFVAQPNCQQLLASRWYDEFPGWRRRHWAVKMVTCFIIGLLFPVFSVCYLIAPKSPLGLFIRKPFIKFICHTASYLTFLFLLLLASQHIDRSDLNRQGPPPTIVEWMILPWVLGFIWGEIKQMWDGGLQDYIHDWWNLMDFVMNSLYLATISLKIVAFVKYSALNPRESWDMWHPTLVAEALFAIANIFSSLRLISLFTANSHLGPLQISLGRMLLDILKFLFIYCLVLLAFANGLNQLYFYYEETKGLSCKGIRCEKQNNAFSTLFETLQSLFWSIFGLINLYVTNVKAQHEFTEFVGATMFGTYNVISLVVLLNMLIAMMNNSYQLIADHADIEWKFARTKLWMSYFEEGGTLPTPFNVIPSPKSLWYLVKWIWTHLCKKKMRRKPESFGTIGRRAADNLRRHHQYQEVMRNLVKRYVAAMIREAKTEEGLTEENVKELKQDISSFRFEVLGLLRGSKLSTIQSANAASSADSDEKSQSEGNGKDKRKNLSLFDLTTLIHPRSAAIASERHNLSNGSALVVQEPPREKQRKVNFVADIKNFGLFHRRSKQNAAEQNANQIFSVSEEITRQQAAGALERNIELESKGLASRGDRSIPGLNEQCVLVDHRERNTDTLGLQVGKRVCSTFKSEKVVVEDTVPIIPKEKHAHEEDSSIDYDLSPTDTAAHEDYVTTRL
Nature of the experiment: mouse TRPC4 channel activators, dose response, cell-based, HEK293 TRPC4/mu-opioid, Fluo-4 calcium (AID 434937). Type of experiment: functional.

For experiment [20], the system named is Streptococcus. Nature of the experiment: Group A Streptococcus viability loss, dose response, counter-screen for streptokinase expression inhibitor project, luminescence, BacTiterGlo (AID 1915).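 Also: potency for reduction of bacterial viability or growth.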 Type of experiment: functional, organism-based.
Experiment [21] relates to Vero. Nature of the experiment: cells. Type of experiment: functional. The note with it: Chlorocebus sabaeus.
Experiment [22] has as its system Streptococcus sp. 'group A'. Nature of the experiment: growth inhibition of control SK(-) GAS strain, dose response, counter-screen for streptokinase expression inhibitor project, luminescence, kanamycin, BacTiterGlo, confirmation (AID 1900). In kind it is functional, organism-based.

Chain of Large T antigen (P03070 whole entry): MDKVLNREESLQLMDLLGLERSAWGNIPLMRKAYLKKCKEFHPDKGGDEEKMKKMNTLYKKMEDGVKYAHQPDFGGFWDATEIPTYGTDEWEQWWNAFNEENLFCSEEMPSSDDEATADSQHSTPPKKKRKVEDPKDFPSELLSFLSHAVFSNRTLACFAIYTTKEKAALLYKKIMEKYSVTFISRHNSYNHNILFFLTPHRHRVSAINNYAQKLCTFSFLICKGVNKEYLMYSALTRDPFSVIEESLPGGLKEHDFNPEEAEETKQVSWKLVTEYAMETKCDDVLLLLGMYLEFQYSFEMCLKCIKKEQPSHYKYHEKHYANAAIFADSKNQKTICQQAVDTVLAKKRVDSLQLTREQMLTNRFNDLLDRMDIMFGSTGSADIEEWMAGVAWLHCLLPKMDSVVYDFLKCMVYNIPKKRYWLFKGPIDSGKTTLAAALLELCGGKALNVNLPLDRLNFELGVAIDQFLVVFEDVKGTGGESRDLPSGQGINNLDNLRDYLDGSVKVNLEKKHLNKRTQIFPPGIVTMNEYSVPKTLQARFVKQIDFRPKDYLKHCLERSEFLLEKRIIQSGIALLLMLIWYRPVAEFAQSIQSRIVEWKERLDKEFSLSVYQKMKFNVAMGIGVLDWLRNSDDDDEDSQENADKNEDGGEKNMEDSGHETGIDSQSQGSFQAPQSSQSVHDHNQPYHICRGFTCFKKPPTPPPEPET
Chain of Luciferin 4-monooxygenase (P08659 whole entry): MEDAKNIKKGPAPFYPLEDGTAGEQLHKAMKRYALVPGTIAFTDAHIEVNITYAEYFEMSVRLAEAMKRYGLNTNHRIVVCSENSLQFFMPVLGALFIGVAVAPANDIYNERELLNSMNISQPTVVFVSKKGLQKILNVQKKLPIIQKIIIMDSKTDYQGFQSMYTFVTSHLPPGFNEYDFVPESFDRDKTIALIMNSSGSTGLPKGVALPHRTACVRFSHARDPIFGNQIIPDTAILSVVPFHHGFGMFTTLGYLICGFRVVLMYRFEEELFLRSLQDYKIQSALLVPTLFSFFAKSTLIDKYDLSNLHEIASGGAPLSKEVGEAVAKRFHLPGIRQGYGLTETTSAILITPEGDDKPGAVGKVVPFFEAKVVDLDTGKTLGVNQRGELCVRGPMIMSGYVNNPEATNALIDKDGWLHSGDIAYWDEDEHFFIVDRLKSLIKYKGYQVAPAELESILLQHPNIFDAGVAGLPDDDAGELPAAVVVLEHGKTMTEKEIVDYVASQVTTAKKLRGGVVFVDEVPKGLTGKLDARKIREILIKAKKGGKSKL

Broadly, the AC50 is the concentration at which the activity in the assay is half-maximal. By IC50 is commonly meant the concentration that gives 50% inhibition. Regarding `O=c1c2ccccc2[nH]c2ccc(O)cc12`, the AC50 in [1] is 17.7 µM (active). Further, in experiment [2], the IC50 was 9.16 µM (active).

Usually EC50 stands for the concentration giving half of the maximal effect. As to `Cc1cc(/C=C2\SC(=S)N=C2O)c(C)n1-c1cccc(O)c1`, the EC50 in [3] was > 150 µM (not active). Moreover, in experiment [4], the AC50 was 8.8 µM (active).

On to `COc1ccc(-c2nnc(NC(=O)c3cccs3)s2)c(OC)c1`, for which, in [5], the IC50 is 3.57 µM (active).

For `Cc1cc(O)ccc1N/C=C1\CCCC1=O`, the IC50 in experiment [2] is 29.8 µM (active); in experiment [6], 22.7 µM (active).

For the compound `C[Se]C[C@@H](N)C(=O)O`, the half-maximal inhibitory concentration (IC50) in experiment [5] was 15 µM (active).

As for `Cc1cccc(NC(=O)CSc2nc3nc(O)cc(O)c3s2)c1`, the IC50 in experiment [5] was 15.9 µM (active).

For `N/C(=N\N=C\c1ccc(O)c(O)c1)c1nonc1N`, the EC50 is 1.74 µM (active) in experiment [7] and 1.67 µM (active) in [8]. Moreover, in [2], the IC50 was 23.4 µM (active).

As for `Cc1cc(-c2nnc(S)n2/N=C/c2c[nH]c3ccccc23)[nH]n1`, the IC50 in experiment [2] is 64 µM (active).

Take `CC(C)N(CCC(=O)c1ccc2ccccc2c1)Cc1ccccc1`: the AC50 in experiment [9] is 4.22 µM (active); in [10] it was > 70 µM (inactive); in experiment [11], 5.58 µM (active); in experiment [12], 17.3 µM (active); in experiment [4], 9.38 µM (active).

A word on the CC50: it is the concentration giving 50% cytotoxicity. Consider `Cc1nc([N+](=O)[O-])c(Sc2nc3cc([N+](=O)[O-])ccc3[nH]2)n1Cc1ccccc1`, for which the CC50 in [13] is 12.6 µM (active). Moreover, the IC50 in [14] was > 80 µM (inactive).

Take `CSc1nnc(C)c(/C=C/Nc2ccc(F)cc2F)n1`: the IC50 in experiment [5] is 13.3 µM (active).

Turning to `CCOc1ccc(/C=C2\SC(=S)N(CCCC(=O)NCCCN3CCOCC3)C2=O)cc1`, the EC50 in experiment [15] is 20.1 µM (active); in experiment [16], > 150 µM (not active); in experiment [17], > 150 µM (not active); in [18], > 150 µM (not active). Further, in experiment [14], the IC50 is > 80 µM (inactive).

As for `Cc1ccc(OCC(=O)NNC(=S)NC(=O)C(C)(C)C)c(Br)c1`, the EC50 in experiment [19] is 4.73 µM (active). The concentration at half-maximal activity (AC50) in experiment [4] was 4.75 µM (active).

For the compound `CC(C)c1c(O)ccc2c1CC[C@H]1C(C)(C)CCC[C@]21C` [TOTAROL], in experiment [4], the AC50 is 3.79 µM (active).

With `Cc1oc(-c2ccccc2Cl)nc1Cn1cccc1C1=NC(c2ccccc2)CO1` (stereo not drawn), the figures for the concentration for a half-maximal effect (EC50) in experiment [3], in [20] and in experiment [22] were > 50 µM (not active), > 150 µM (not active) and > 150 µM (not active), respectively. Further, the half-maximal cytotoxic concentration (CC50) in experiment [21] was > 25 µM (active).
